Assay results reported in US9049864B2, “Pyridazinone herbicidal compounds” (Syngenta Limited, priority 2012, dated 2015).

Key:
Assay in all cases: Post-emergence herbicidal glasshouse test, percentage damage to the plant
Format in all cases: in vivo
[1] = system: Amaranthus retoflexus (AMARE)
Method: (§1) Seeds of a variety of test species are sown in standard soil in pots:—Solanum nigrum (SOLNI), Amaranthus retoflexus (AMARE), Setaria faberi (SETFA), Alopecurus myosuroides (ALOMY), Echinochloa crus-galli (ECHCG), Ipomoea hederacea (IPOHE). After 8 days cultivation (post-emergence) under controlled conditions in a glasshouse (at 24/16° C., day/night; 14 hours light; 65% humidity), the plants are sprayed with an aqueous spray solution derived from the formulation of the technical active ingredient in acetone/water (50:50) solution containing 0.5% Tween 20 (polyoxyethelyene sorbitan monolaurate, CAS RN 9005-64-5). Compounds are applied at 1000 g/ha. The test plants are then grown in a glasshouse under controlled conditions in a glasshouse (at 24/16° C., day/night; 14 hours light; 65% humidity) and watered twice daily. After 13 days, the test is evaluated for the percentage damage caused to the plant. The biological activities are shown in the following table on a five point scale (5=80-100%; 4=60-79%; 3=40-59%; 2=20-39%; 1=0-19%). A comparative experiment is conducted to compare the biological efficacy of a compound of the present invention with those of WO 2011/045271. The test is performed as outlined above using the following compounds. Three different application rates are employed (250 g/ha, 500 g/ha and 1000 g/ha).

[2] = system: Ipomoea hederacea (IPOHE)
Method: as §1

Solanum nigrum (SOLNI) = system: Solanum nigrum (SOLNI)
Method: as §1

[3] = system: Alopecurus myosuroides (ALOMY)
Method: as §1

[4] = system: Echinochloa crus-galli (ECHCG)
Method: as §1

Setaria faberi (SETFA) = system: Setaria faberi (SETFA)
Method: as §1

[5] = post-emergence, 1000 g/ha, evaluated after 13 days
[6] = comparative experiment, rate 250 g/ha
[7] = comparative experiment, rate 500 g/ha
[8] = comparative experiment, rate 1000 g/ha

| Structure (SMILES) | POST Application AMARE, percentage damage (five point scale) [1, 5] | POST Application IPOHE, percentage damage (five point scale) [2, 5] | POST Application SOLNI, percentage damage (five point scale) (Solanum nigrum (SOLNI); [5]) | POST Application ALOMY, percentage damage (five point scale) [3, 5] | POST Application ECHCG, percentage damage (five point scale) [4, 5] | POST Application SETFA, percentage damage (five point scale) (Setaria faberi (SETFA); [5]) | also measured |
| --- | --- | --- | --- | --- | --- | --- | --- |
| CN1N=CC(=O)C(n2ccc3c(Br)cccc32)C1=O (stereo not drawn) [Compound 1.005] | 2 (2=20-39%) | 2 (2=20-39%) | 5 (5=80-100%) | 1 (1=0-19%) | 1 (1=0-19%) | 3 (3=40-59%) | – |
| CCCOC1=NN(C)C(=O)C(n2c(Cl)c(Cl)c3ccccc32)C1=O (stereo not drawn) [Compound 2.018] | 3 (3=40-59%) | 4 (4=60-79%) | 4 (4=60-79%) | 1 (1=0-19%) | 1 (1=0-19%) | 1 (1=0-19%) | – |
| Cc1nn(C)c(=O)c(-n2c(Cl)c(Cl)c3ccccc32)c1OC(=O)SC(C)(C)C [Compound 3.007] | 5 (5=80-100%) | 5 (5=80-100%) | 5 (5=80-100%) | 1 (1=0-19%) | 1 (1=0-19%) | 1 (1=0-19%) | – |
| CN1N=C(OCC(F)(F)F)C(=O)C(n2c(Cl)c(Cl)c3ccccc32)C1=O (stereo not drawn) [Compound 2.024] | 2 (2=20-39%) | 1 (1=0-19%) | 2 (2=20-39%) | 1 (1=0-19%) | 1 (1=0-19%) | 1 (1=0-19%) | – |
| CC(C)C1=NN(C)C(=O)C(n2c(Cl)c(Cl)c3ccccc32)C1=O (stereo not drawn) [Compound 2.013] | 3 (3=40-59%) | 2 (2=20-39%) | 4 (4=60-79%) | 1 (1=0-19%) | 1 (1=0-19%) | 1 (1=0-19%) | – |
| CN1N=C(C2CC2)C(=O)C(n2c(Cl)c(Cl)c3ccccc32)C1=O (stereo not drawn) [Compound 2.026] | 4 (4=60-79%) | 5 (5=80-100%) | 5 (5=80-100%) | 1 (1=0-19%) | 1 (1=0-19%) | 2 (2=20-39%) | – |
| Cc1nn(C)c(=O)c(-n2c(Cl)c(Cl)c3ccccc32)c1OC(=O)C(C)C [Compound 3.003] | 5 (5=80-100%) | 5 (5=80-100%) | 5 (5=80-100%) | 1 (1=0-19%) | 4 (4=60-79%) | 1 (1=0-19%) | – |
| CN1N=CC(=O)C(n2ccc3cc(Br)ccc32)C1=O (stereo not drawn) [Compound 1.004] | 1 (1=0-19%) | 1 (1=0-19%) | 4 (4=60-79%) | 1 (1=0-19%) | 1 (1=0-19%) | 1 (1=0-19%) | – |
| CC1=NN(C)C(=O)C(n2c(Br)c(Cl)c3ccccc32)C1=O (stereo not drawn) [Compound 1.026] | 5 (5=80-100%) | 5 (5=80-100%) | 5 (5=80-100%) | 2 (2=20-39%) | 4 (4=60-79%) | 3 (3=40-59%) | – |
| CC1=NN(C)C(=O)C(n2c(Br)c(Br)c3ccccc32)C1=O (stereo not drawn) [Compound 1.024] | 5 (5=80-100%) | 5 (5=80-100%) | 5 (5=80-100%) | 1 (1=0-19%) | 2 (2=20-39%) | 2 (2=20-39%) | – |
| Cc1nn(C)c(=O)c(-n2c(Cl)c(Cl)c3ccccc32)c1OC(=O)OC(C)C [Compound 3.011] | 5 (5=80-100%) | 5 (5=80-100%) | 5 (5=80-100%) | 1 (1=0-19%) | 4 (4=60-79%) | 2 (2=20-39%) | – |
| Cc1cc(Cl)nn1C1C(=O)C=NN(C)C1=O (stereo not drawn) [Compound B, reference compound] | – | – | – | – | – | – | POST Application AMARE, percentage damage (five point scale) [1, 6]: 2 (2=20-39%); POST Application AMARE, percentage damage (five point scale) [1, 7]: 3 (3=40-59%); POST Application AMARE, percentage damage (five point scale) [1, 8]: 4 (4=60-79%); POST Application IPOHE, percentage damage (five point scale) [2, 6]: 1 (1=0-19%); POST Application IPOHE, percentage damage (five point scale) [2, 7]: 2 (2=20-39%); POST Application IPOHE, percentage damage (five point scale) [2, 8]: 5 (5=80-100%); POST Application SOLNI, percentage damage (five point scale) (Solanum nigrum (SOLNI); [6]): 2 (2=20-39%); POST Application SOLNI, percentage damage (five point scale) (Solanum nigrum (SOLNI); [7]): 3 (3=40-59%); POST Application SOLNI, percentage damage (five point scale) (Solanum nigrum (SOLNI); [8]): 4 (4=60-79%); POST Application ALOMY, percentage damage (five point scale) [3, 6]: 1 (1=0-19%); POST Application ALOMY, percentage damage (five point scale) [3, 7]: 1 (1=0-19%); POST Application ALOMY, percentage damage (five point scale) [3, 8]: 2 (2=20-39%); POST Application ECHCG, percentage damage (five point scale) [4, 6]: 1 (1=0-19%); POST Application ECHCG, percentage damage (five point scale) [4, 7]: 1 (1=0-19%); POST Application ECHCG, percentage damage (five point scale) [4, 8]: 2 (2=20-39%); POST Application SETFA, percentage damage (five point scale) (Setaria faberi (SETFA); [6]): 1 (1=0-19%); POST Application SETFA, percentage damage (five point scale) (Setaria faberi (SETFA); [7]): 1 (1=0-19%); POST Application SETFA, percentage damage (five point scale) (Setaria faberi (SETFA); [8]): 1 (1=0-19%) |
| CC1=NN(C)C(=O)C(n2cc(Br)c3ccccc32)C1=O (stereo not drawn) [Compound 1.025] | 4 (4=60-79%) | 3 (3=40-59%) | 5 (5=80-100%) | 1 (1=0-19%) | 1 (1=0-19%) | 1 (1=0-19%) | – |
| CN1N=C([S+](C)[O-])C(=O)C(n2c(Cl)c(Cl)c3ccccc32)C1=O (stereo not drawn) [Compound 2.005] | 2 (2=20-39%) | 5 (5=80-100%) | 5 (5=80-100%) | 1 (1=0-19%) | 1 (1=0-19%) | 1 (1=0-19%) | – |
| CN1N=C(COCC2CCCCC2)C(=O)C(n2c(Cl)c(Cl)c3ccccc32)C1=O (stereo not drawn) [Compound 2.011] | 2 (2=20-39%) | 5 (5=80-100%) | 4 (4=60-79%) | 1 (1=0-19%) | 1 (1=0-19%) | 1 (1=0-19%) | – |
